35 molecules from ChEMBL document CHEMBL4020841, “Structure Guided Lead Generation toward Nonchiral M. tuberculosis Thymidylate Kinase Inhibitors” (J Med Chem, 2018) can be followed below.

Each structure is given as a SMILES string. Calls of active or inactive are those of the source. The rule behind the calls is not given here.

The test relates to Mycobacterium tuberculosis. Put plainly: Antimicrobial activity against Mycobacterium tuberculosis H37Ra ATCC 25177 harboring pSMT1 luciferase reporter plasmid up to 64 uM after 7 days by luminometric method. In kind it is functional. (In general: In a reporter assay the amount or activity of a reporter protein is the signal.)
On to `Cc1cn(C2CCN(Cc3cccc4ccccc34)CC2)c(=O)[nH]c1=O`, for which the outcome was inactive. For the molecule `Cc1cn(C2CN(CCCc3cccc(Oc4ccccc4)c3)C2)c(=O)[nH]c1=O`, the result was inactive. As for `Cc1cn(C2CCN(Cc3ccnc4ccccc34)CC2)c(=O)[nH]c1=O`, the entry is “inactive”; as for `Cc1cn(C2CCN(Cc3ccc(N(C)C)cc3)CC2)c(=O)[nH]c1=O`, “inactive”; as for `Cc1cn(CC2CCN(Cc3ccc(Oc4ccccc4)cc3)CC2)c(=O)[nH]c1=O`, “inactive”. In the case of `Cc1ccc(CN2CCC(n3cc(C)c(=O)[nH]c3=O)CC2)cc1` it was “inactive”; in that of `Cc1cn(C2CCN(Cc3cnc4ccccc4c3)CC2)c(=O)[nH]c1=O`, “inactive”. As for `Cc1cn(C2CCN(Cc3ccc4ccccc4c3)CC2)c(=O)[nH]c1=O`, the result was inactive. As for `Cc1cn(C2CCN(Cc3cccc(Oc4ccccc4)c3)CC2)c(=O)[nH]c1=O`, the entry is “inactive”; as for `Cc1cn(C2CCN(Cc3cccc(C(=O)O)n3)CC2)c(=O)[nH]c1=O`, “inactive”. Regarding `Cc1cn(C2CCN(Cc3nccc4ccccc34)CC2)c(=O)[nH]c1=O`, the outcome was inactive. As for `Cc1cn(C2CCN(Cc3ccco3)CC2)c(=O)[nH]c1=O`, the entry is “inactive”; as for `Cc1cn(C2CCN(Cc3ccc(C#N)cc3)CC2)c(=O)[nH]c1=O`, “inactive”; as for `Cc1cn(C2CCN(CC3CCCCC3)CC2)c(=O)[nH]c1=O`, “inactive”. Consider `Cc1cn(C2CN(Cc3ccc(Oc4ccccc4)cc3)C2)c(=O)[nH]c1=O`, for which the result was inactive. As for `Cc1cn(C2CN(CCc3cccc(Oc4ccccc4)c3)C2)c(=O)[nH]c1=O`, the entry is “inactive”. As for `Cc1cn(C2CCN(Cc3ccncc3)CC2)c(=O)[nH]c1=O`, the entry is “inactive”. With `Cc1cn(C2CCN(Cc3ccc(Oc4ccccc4)cc3)CC2)c(=O)[nH]c1=O`, the result was inactive. In the case of `Cc1cn(C2CN(Cc3cccc(Oc4ccccc4)c3)C2)c(=O)[nH]c1=O` it was “inactive”; in that of `Cc1cn(C2CCN(Cc3cncc4ccccc34)CC2)c(=O)[nH]c1=O`, “inactive”; in that of `Cc1cn(C2CCN(C(=O)c3ccc(Oc4ccccc4)cc3)CC2)c(=O)[nH]c1=O`, “inactive”. As for `Cc1cn(C2CCN(Cc3cc(Oc4ccccc4)c4ccc(Cl)cc4n3)CC2)c(=O)[nH]c1=O`, the entry is “inactive”; as for `Cc1cccc(CN2CCC(n3cc(C)c(=O)[nH]c3=O)CC2)c1`, “inactive”; as for `Cc1cn(C2CCN(Cc3ccccc3)CC2)c(=O)[nH]c1=O`, “inactive”. In the case of `Cc1cn(C2CCN(Cc3cc4ccccc4cn3)CC2)c(=O)[nH]c1=O` it was “inactive”. In the case of `Cc1cn(C2CCN(CCc3cccc(Oc4ccccc4)c3)CC2)c(=O)[nH]c1=O`, the outcome was inactive. With `Cc1cn(C2CCN(Cc3cccnc3)CC2)c(=O)[nH]c1=O`, the result was inactive. On to `Cc1cn(C2CCN(C(=O)c3cccc(Oc4ccccc4)c3)CC2)c(=O)[nH]c1=O`, for which the outcome was inactive.

Take `COc1ccc(CN2CCC(n3cc(C)c(=O)[nH]c3=O)CC2)cc1`: the result was inactive. Consider `Cc1cn(C2CCN(Cc3ccc(C(=O)O)cc3)CC2)c(=O)[nH]c1=O`, for which the result was inactive. As to `Cc1cn(C2CCN(Cc3cc4ccccc4o3)CC2)c(=O)[nH]c1=O`, the result was inactive. Take `Cc1cn(C2CCN(Cc3ccccn3)CC2)c(=O)[nH]c1=O`: the outcome was inactive.

With `Cc1cn(C2CCN(Cc3ccoc3)CC2)c(=O)[nH]c1=O`, the outcome was inactive. As for `Cc1cn(CC2CCN(Cc3cccc(Oc4ccccc4)c3)CC2)c(=O)[nH]c1=O`, the entry is “inactive”; as for `Cc1cn(C2CCN(Cc3ccc(Cl)cc3)CC2)c(=O)[nH]c1=O`, “inactive”.
